Measured values as given in US20190328753A1, “COMPOSITIONS AND METHODS FOR TREATING OCULAR DISEASES” (priority 2015, published 2019).

Legend:
Corneal epithelial cells = assay: Lipid production in corneal epithelial cells, dilutions of 0.025 mg/ml formulation, Oil Red O (Example 7); type: cell-based; conditions: seventh day
Protocol: Corneal epithelial cells were cultured in vitro to about 30% confluence and treated with various dilutions of a 0.025 mg/mL spironolactone eye drop formulation (i.e. 50×, 100×, 500×, 1000×, and 5000×, corresponding to 0.0005 mg/ml, 0.00025 mg/ml, 0.00005 mg/ml, 0.000025 mg/ml, and 0.000005 mg/ml). The cell medium with spironolactone was changed every two days. On the seventh day, the cells were stained for lipids with Oil Red O.

[1] = according to the literature; cited from earlier work

CC(=O)SC1CC2=CC(=O)CCC2(C)C2CCC3(C)C(CCC34CCC(=O)O4)C12 (stereo not drawn) [spironolactone, 7α-acetylthio-3-oxo-17α-pregn-4-ene-21,17-carbolactone]
lipid production (Oil Red O) (Corneal epithelial cells; 1000× dilution (0.000025 mg/ml)): lipid production was still present
lipid production (Oil Red O) (Corneal epithelial cells; 5000× dilution (0.000005 mg/ml)): no lipid is being formed
solubility in water [1]: practically insoluble in water
